Test results taken from patent EP0386920A2, “2-Hydroxy-3-thienyloxypropylamino derivatives” (IMPERIAL CHEMICAL INDUSTRIES PLC, priority 1989, dated 1990).

Experiments:
[1] = test system: BAT mitochondria; assay: test (a): GDP binding in brown adipose tissue (BAT) mitochondria of cold-adapted rats as a measure of thermogenic activation; assay type: in vivo; conditions: Rattus norvegicus, sc, 1 h, sub-cutaneous (s.c), BAT removed one hour after dosing, relative to isoprenaline 1 mg/kg, read-out: ED₅₀ (dose necessary to produce 50% of the isoprenaline effect on GDP binding)
[2] = test system: Rats; assay: test (c): metabolic rate (oxygen consumption) in cold-adapted rats; assay type: in vivo; conditions: at 1mgkg⁻¹ p.o., closed-circuit oxygen consumption apparatus
[3] = test system: Rats; assay: test (b): heart rate in rats adapted to a thermoneutral environment (D500 dose and selectivity index)

Compound	ED50 [1] [mg/kg]	increase in metabolic rate [2] [ml O₂ min⁻¹Kg ^0.75]	SI (selectivity index, ratio of D₅₀₀ to ED₅₀ in test (a)) ([3]; s.c)	SI (selectivity index, ratio of D₅₀₀ to ED₅₀ in test (a)) ([3]; route not stated)
COC(=O)COc1ccc(CCNCC(O)COc2ccsc2)cc1 (racemic) [Example 1, Methyl 4-[2-(2-hydroxy-3-(3-thienyloxy)propylamino)ethyl]phenoxyacetate]	0.2	5.2	> 100	–
CC(C)NCC(O)c1ccc(O)c(O)c1 (stereo not shown) [isoprenaline, reference compound]	–	–	–	0.06
